One experiment concerns the target T1, TrxR1 (Homo sapiens, UniProt Q16881).
T1 construct: purchased IMCO Corporation (Stockholm, Sweden) or Sino Biological Inc (Zoersel, Belgium)
T1 sequence (Q16881 1-499 isoform Q16881-5): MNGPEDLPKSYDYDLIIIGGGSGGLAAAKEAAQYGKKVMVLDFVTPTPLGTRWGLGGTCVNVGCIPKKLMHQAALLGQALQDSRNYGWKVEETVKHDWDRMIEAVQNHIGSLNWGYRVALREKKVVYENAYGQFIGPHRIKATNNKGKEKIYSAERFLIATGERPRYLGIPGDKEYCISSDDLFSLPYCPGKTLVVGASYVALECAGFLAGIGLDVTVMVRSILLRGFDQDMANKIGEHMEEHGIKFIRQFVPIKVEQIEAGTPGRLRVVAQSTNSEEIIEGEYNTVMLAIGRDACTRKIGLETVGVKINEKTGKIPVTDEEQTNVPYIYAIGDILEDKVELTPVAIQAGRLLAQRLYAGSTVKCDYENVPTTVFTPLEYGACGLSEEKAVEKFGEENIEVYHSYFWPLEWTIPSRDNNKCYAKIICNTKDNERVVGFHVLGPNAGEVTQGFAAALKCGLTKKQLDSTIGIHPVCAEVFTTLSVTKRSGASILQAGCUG
In words: SPR binding to immobilized TrxR1. Conditions: 10, 50 and 250 μM. On the procedure: SPR analysis was performed to evaluate binding of TE-2 to immobilized recombinant TrxR1, PDI, gp120, gp41 and sCD4. Therefore, these ligands were immobilized on a CM5 sensor chip (GE Healthcare, Uppsala, Sweden) using standard amine coupling in the presence of 10 mM sodium acetate, pH 5. A high ligand-density chip was created, with ligand densities of 6759, 5004, 4119, 2900 and 5569 RU, respectively. A reference flow cell was used to control for non-specific binding and refractive index changes. All interactions were studied at 25°C on a Biacore T200 instrument (GE Healthcare, Uppsala, Sweden) in HBS-P (10 mM HEPES, 150 mM NaCl and 0.05% surfactant P20; pH 7.4) supplemented with 10 mM CaCl2 and 5% DMSO. TE-2 was tested at the concentrations 10, 50 and 250 μM. Samples were injected during 2 minutes at a flow rate of 30 μl/min, followed by a dissociation phase of 2 minutes. Each injection was followed by a regeneration step with 50 mM NaOH (injected during 10 seconds at a flow rate of 100 μl/min).
(In general: Surface plasmon resonance follows binding to a sensor surface in real time, without labels.)

In another experiment the test system is HIV-1. Description: Infectivity (TZM-bl) of virus particles produced by ACH-2 cells in presence of compound. The format is cell-based. The settings on record: ACH-2 cultures exposed to compound 3 days; supernatant 1:100 titrated on TZM-bl. How it is done:
To measure the infectivity of particles produced in the presence of the compounds, washed persistently HIV-1-infected ACH-2 cells (1 x 10^6 cells/ml) were cultured with 100 nM PMA in the presence of the indicated concentration of compounds. After 3 days, the p24 content of the clarified supernatant (see virus expression) was measured. The cell supernatant was then used for an infectivity test (see infectivity assay) without the further addition of any compound to the cultures. The final dilution of the ACH-2 supernatant in the infectivity test was 1:100. A control experiment was performed, in which virus particles produced without the addition of compound, were used for the infectivity test. Additionally, the same amount of compound that could have been carried over with the virus containing supernatant in the original experiment was added to the infectivity test (final concentration: 1/100 of the indicated amount in the viral growth culture).

In the next experiment the test system is HIV-1(BaL). Description: Antiviral activity in PHA-stimulated PBMCs (p24 ELISA), HIV-1(BaL). The format is cell-based. Conditions: PHA-stimulated PBMCs; mean ± SD; read-out: EC50 HIV-1 (BAL). On the procedure:
To test the antiviral activity in fresh, PHA-stimulated PBMCs, an experiment was performed as previously described. Briefly, the cells were preincubated with HIV-1(IIIB), HIV-1(BaL) or HIV-1(HE) for 1 h at 37°C, using a viral load of 1000 x CCID50 per ml. Then, cell suspensions containing virus and 2 x 10^5 PBMCs were seeded in a 96-well microtiter plate and a serial dilution of compound was added, in a total volume of 200 μl. After 4 days, the cells were passaged and fresh culture medium, containing IL-2 and compound, was added. Three days later, cellular supernatants were harvested and viral replication in the presence of the compounds was quantified using a p24 enzyme-linked immunosorbent assay (ELISA) (Perkin Elmer, Brussels, Belgium). The half maximal effective concentration (EC50) was defined as the compound concentration that is required to block viral replication by 50%.
For orientation: An ELISA detects its analyte on a solid surface through an enzyme-linked reagent.

Consider 1 substance from paper PMC4729491, “The Cellular Thioredoxin-1/Thioredoxin Reductase-1 Driven Oxidoreduction Represents a Chemotherapeutic Target for HIV-1 Entry Inhibition” (PLoS ONE, 2016).

pEC50: −log10 of the molar value.

In the case of “6-(butyltelluro)-6-deoxy-β-cyclodextrin [TE-2]”, on TrxR1, the “SPR binding to TrxR1” value is given as “able to specifically bind TrxR1”. Also, the “infectivity of virus particles produced in presence of compound (normalized for equal p24)” value in the experiment on HIV-1 is “substantially less infectious virus particles”. For the same substance, the pEC50 with HIV-1(BaL) is not above 4.60.

What is called pEC50 is the negative decadic logarithm of the EC50, by convention in mol/L.
